The results in this text go back to ChEMBL document CHEMBL5543153, “Discovery of a Potent Dual Son of Sevenless 1 (SOS1) and Epidermal Growth Factor Receptor (EGFR) Inhibitor for the Treatment of Prostate Cancer” (J Med Chem, 2024).

The source made the active and inactive calls. No cut-off for these calls is given here.

Data set [1] addresses T1, Son of sevenless homolog 1 (Homo sapiens) (UniProt Q07889).
T1 sequence (whole entry): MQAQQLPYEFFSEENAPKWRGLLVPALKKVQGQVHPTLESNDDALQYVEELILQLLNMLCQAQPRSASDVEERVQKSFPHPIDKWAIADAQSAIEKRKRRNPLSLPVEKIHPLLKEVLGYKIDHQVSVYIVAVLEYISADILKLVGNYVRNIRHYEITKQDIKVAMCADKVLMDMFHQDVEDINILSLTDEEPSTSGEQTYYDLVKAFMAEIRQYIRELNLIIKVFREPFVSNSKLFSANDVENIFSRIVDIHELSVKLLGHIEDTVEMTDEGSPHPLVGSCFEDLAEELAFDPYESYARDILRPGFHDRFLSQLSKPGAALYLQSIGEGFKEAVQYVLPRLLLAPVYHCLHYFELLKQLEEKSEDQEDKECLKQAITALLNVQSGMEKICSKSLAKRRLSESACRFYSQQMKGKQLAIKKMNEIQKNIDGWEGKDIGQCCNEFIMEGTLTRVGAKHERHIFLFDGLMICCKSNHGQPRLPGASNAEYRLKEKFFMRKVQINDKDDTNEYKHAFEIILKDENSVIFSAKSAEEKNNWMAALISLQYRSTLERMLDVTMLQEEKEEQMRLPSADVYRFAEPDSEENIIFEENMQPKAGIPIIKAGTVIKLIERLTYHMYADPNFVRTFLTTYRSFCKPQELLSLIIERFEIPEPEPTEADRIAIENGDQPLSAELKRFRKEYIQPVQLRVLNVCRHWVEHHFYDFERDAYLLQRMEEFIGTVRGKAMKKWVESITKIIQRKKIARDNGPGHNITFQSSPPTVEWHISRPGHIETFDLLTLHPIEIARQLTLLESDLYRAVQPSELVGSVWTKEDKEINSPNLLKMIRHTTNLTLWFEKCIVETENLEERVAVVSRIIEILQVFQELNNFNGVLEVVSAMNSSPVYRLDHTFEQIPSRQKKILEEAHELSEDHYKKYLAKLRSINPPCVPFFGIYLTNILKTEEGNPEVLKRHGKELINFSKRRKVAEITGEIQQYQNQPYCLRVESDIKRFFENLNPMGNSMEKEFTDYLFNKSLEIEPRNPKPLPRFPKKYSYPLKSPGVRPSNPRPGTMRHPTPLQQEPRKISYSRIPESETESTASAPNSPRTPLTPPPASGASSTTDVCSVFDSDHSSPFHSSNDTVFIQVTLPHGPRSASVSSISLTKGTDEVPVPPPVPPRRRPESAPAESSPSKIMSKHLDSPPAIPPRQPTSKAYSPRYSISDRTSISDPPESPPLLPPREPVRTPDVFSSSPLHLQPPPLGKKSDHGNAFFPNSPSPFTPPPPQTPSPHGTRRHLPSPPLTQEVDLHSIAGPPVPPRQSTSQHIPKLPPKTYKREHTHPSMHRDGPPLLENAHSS
The experiment in a line: Inhibition of SOS1 in human PC-3 cells assessed as downregulation of RAS-GTP expression at 0.5 uM incubated for 15 mins by Western blotting analysis. Format: cell-based. Background: Immunoblotting shows a protein as a band on a membrane.

The nature of data set [2]: Toxicity in BALB/c mouse xenografted with human PC-3 cells assessed as kidney pathological change at 20 mg/kg,ip administrated once every 4 days for 24 days by hematoxylin and eosin staining based analysis. Format: organism-based. The conditions noted are these: in vivo, 576 h, time 24 day. On the technique in general: Xenograft models place foreign cells or tissue in a host animal.

Data set [3] concerns PC-3. The experiment in a line: Induction of cell cycle arrest in human PC-3 cells assessed as accumulation of cells at S phase at 0.5 uM by PI staining based flow cytometry (reference value: 16.58%). Format: functional. For orientation: A flow cytometer gives signals particle by particle.
Data set [4] can be described thus: Toxicity in BALB/c mouse xenografted with human PC-3 cells assessed as kidney pathological change at 5 mg/kg,ip administrated once every 4 days for 24 days by hematoxylin and eosin staining based analysis. Format: organism-based. The conditions noted are these: in vivo, 576 h, time 24 day.
The subject of data set [5] is PC-3. The experiment in a line: Antitumor activity against human PC-3 cells xenografted in BALB/c mouse assessed as reduction in tumor volume at 5 mg/kg,ip administrated once every 4 days for 24 days. Format: functional, organism-based. The conditions noted are these: time 24.0 day.
The test system of data set [6] is PC-3. The experiment in a line: Induction of apoptosis in human PC-3 cells assessed as early apoptotic cells at 12.5 uM by Annexin V-FITC staining based flow cytometry (reference value: 2.64%). Format: functional.
The test system of data set [7] is PC-3. The experiment in a line: Induction of apoptosis in human PC-3 cells assessed as early apoptotic cells at 0.5 uM by Annexin V-FITC staining based flow cytometry (reference value: 2.64%). Format: functional.
Data set [8] can be described thus: Toxicity in BALB/c mouse xenografted with human PC-3 cells assessed as change in ALT level at 20 mg/kg,ip administrated once every 4 days for 24 days by automatic biochemical analyzer. Format: organism-based. The conditions noted are these: in vivo, 576 h, time 24 day.
Data set [9] can be described thus: Toxicity in BALB/c mouse xenografted with human PC-3 cells assessed as lung pathological change at 20 mg/kg,ip administrated once every 4 days for 24 days by hematoxylin and eosin staining based analysis. Format: organism-based. The conditions noted are these: in vivo, 576 h, time 24 day.
In data set [10] the test system is HUVEC. The experiment in a line: Antiangiogenic activity in HUVEC cells assessed as reduction of mean mesh at 0.5 to 12.5 uM incubated for 8 hrs by matrigel based microscopic analysis. Format: functional, cell-based. The conditions noted are these: Homo sapiens, dose 0.5-12.5 µM.
Data set [11] deals with PC-3. The experiment in a line: Induction of cell cycle arrest in human PC-3 cells assessed as accumulation of cells at G2 phase at 12.5 uM by PI staining based flow cytometry (reference value: 7.75%). Format: functional.
The test system of another data set is Calu-1. The experiment in a line: Antiproliferative activity against human Calu-1 cells harboring KRAS G12C mutant assessed as inhibition of cell growth incubated for 72 hrs by MTT assay. The conditions noted are these: Calu-1, 72 h. Format: functional, cell-based.
In data set [12] the test system is PC-3. The experiment in a line: Antitumor activity against human PC-3 cells xenografted in BALB/c mouse assessed as reduction in tumor weight at 20 mg/kg,ip administrated once every 4 days for 24 days. Format: functional, organism-based. The conditions noted are these: time 24.0 day.
A further data set has as its system A549. The experiment in a line: Antiproliferative activity against human A549 cells assessed as inhibition of cell growth incubated for 72 hrs by MTT assay. Format: functional, cell-based.
In data set [13] the target is T1, Son of sevenless homolog 1 (Homo sapiens). The experiment in a line: Inhibition of SOS1 in human PC-3 cells assessed as downregulation of ERK phosphorylation at 2.5 uM incubated for 15 mins by Western blotting analysis. Format: cell-based.
The test system of data set [14] is PC-3. The experiment in a line: Induction of apoptosis in human PC-3 cells assessed as necrotic cells at 12.5 uM by Annexin V-FITC staining based flow cytometry (reference value: 0.48%). Format: functional.
Data set [15] has as its system HUVEC. The experiment in a line: Antiangiogenic activity in HUVEC cells assessed as reduction in tube master junction at 0.5 to 12.5 uM incubated for 8 hrs by matrigel based microscopic analysis. Format: functional, cell-based. The conditions noted are these: Homo sapiens, dose 0.5-12.5 µM.
Data set [16] addresses T1, Son of sevenless homolog 1 (Homo sapiens). The experiment in a line: Inhibition of human recombinant SOS1 at 10 uM relative to control.
Data set [17] shares this target. The experiment in a line: Inhibition of SOS1 in human PC-3 cells assessed as downregulation of ERK phosphorylation at 12.5 uM incubated for 15 mins by Western blotting analysis. Format: cell-based.
Data set [18] deals with PC-3. The experiment in a line: Induction of apoptosis in human PC-3 cells assessed as viable cells at 0.5 uM by Annexin V-FITC staining based flow cytometry (reference value: 94.9%). Format: functional. The conditions noted are these: read-out: Activity.
Data set [19] has as its system HUVEC. The experiment in a line: Antiangiogenic activity in HUVEC cells assessed as reduction in total branching length at 0.5 to 12.5 uM incubated for 8 hrs by matrigel based microscopic analysis. The conditions noted are these: Homo sapiens, dose 0.5-12.5 µM. Format: functional, cell-based.
The target of data set [20] is T1, Son of sevenless homolog 1 (Homo sapiens). The experiment in a line: Inhibition of SOS1 in human PC-3 cells assessed as downregulation of ERK phosphorylation at 0.5 uM incubated for 15 mins by Western blotting analysis. Format: cell-based.

With `COc1cc2ncnc(N[C@H](C)c3cccc(F)c3)c2cc1OC1CCOCC1`, the inhibition result in data set [1], in data set [13], in [17] and in data set [20] was “Active” each time. Further, the Activity entry in data set [2] is on record as “Toxic”; in the data set on PC-3 [3], 10.84%; in data set [4], “Toxic”; in the data set on PC-3 [6] it was 21.5%; in the data set with PC-3 [7] it was 11.7%; in data set [8], “Non-Toxic”. In addition, the Activity entry in data set [9] is given as “Toxic”; in the data set on PC-3 [11] it was 5.95%; in the data set on PC-3 [14], 0.15%. The outcome with PC-3 [5], in the data set with HUVEC [10], with PC-3 [12], in the data set on A549, in the data set with HUVEC [15] and in the data set with HUVEC [19] was Active. Also, in the data set with Calu-1, the half-inhibitory concentration (IC50) (usually the concentration at which inhibition is half-maximal) came out at 550 nM. Besides, the inhibition (in general, the relative decrease from the control value, in per cent) in [16] was determined as 97%. Moreover, the viability at 0.5 µM with PC-3 [18] was 84.9%.
